pIC50: −log10 of the molar value.
What follows are compounds tested against T1, Axl (Homo sapiens, UniProt P30530) (assay: Phospho-Akt In-Cell Western Assay (inhibition of Axl activity after Axl-antibody cross-linking)). Conditions: Hela cells, phospho-Akt chemiluminescence normalized to relative cell number; compounds of formula (Ia), Table 1; read-out: IC50.
T1 construct: endogenous in cells; host or cells: HeLa cells
T1 sequence (P30530 26-894): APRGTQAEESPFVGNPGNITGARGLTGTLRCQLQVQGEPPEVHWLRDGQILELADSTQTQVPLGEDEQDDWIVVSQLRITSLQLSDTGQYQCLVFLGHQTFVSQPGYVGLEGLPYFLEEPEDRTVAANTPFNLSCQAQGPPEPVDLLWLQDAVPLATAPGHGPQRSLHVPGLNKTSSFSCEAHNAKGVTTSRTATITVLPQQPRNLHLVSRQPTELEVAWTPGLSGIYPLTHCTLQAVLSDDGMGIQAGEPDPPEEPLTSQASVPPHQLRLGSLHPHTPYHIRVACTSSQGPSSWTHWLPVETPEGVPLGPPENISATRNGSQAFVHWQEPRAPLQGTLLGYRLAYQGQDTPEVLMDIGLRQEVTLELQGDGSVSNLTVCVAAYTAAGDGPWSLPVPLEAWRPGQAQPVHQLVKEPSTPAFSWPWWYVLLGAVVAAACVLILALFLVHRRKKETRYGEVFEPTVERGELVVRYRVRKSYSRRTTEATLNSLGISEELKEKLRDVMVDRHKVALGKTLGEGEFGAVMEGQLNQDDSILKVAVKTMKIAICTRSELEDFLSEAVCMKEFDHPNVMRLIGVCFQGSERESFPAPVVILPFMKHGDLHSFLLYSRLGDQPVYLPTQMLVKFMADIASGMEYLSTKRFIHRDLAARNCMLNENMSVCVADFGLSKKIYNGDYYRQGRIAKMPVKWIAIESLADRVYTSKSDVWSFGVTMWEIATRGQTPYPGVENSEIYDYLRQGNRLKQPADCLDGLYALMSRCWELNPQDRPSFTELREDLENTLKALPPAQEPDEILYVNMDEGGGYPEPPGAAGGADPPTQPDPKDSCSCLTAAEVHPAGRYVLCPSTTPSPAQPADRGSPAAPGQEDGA
Format: cell-based
Description: The compounds of the invention were tested in the following assay for their ability to inhibit Axl activity.
Phospho-Akt In-Cell Western Assay
• Cell culture plate: 96 well assay plate (Corning 3610), white, clear bottom, tissue-culture treated. • Cells: Hela cells. • Starvation medium: For Axl stimulation: 0.5% FCS (fetal calf serum) in DMEM, plus Axl/Fc (extracellular domain of AXL fused to immunoglobulin Fc region) (R&D, 154-AL) 500 ng/mL. • For EGF (epidermal growth factor) stimulation: 0.5% FCS in DMEM (Dulbecco's modified Eagles medium). • Poly-L-Lysine 0.01% solution (the working solution): […], dilute In PBS (phosphate buffered saline). • Axl antibody cross-linking: • 1st: Mouse anti-Axl (R&D, MAB154). • 2nd: Biotin-SP-conjugated AffiniPure goat anti-mouse IgG (H+ L) (Jackson ImmunoResearch #115-065-003). • Fixing buffer: 4% formaldehyde in PBS. • Wash buffer: 0.1% TritonX-100 in PBS. • Quenching buffer: 3% H2O2, 0.1% Azide in wash buffer, Azide and hydrogen peroxide (H2O2) are added fresh. • Blocking buffer: 5% BSA in TBST (tris buffered saline plus 0.1% Tween 20). • Primary antibody: Rabbit anti-human Phospho-Akt antibody (Cell Signaling 9271): 1×250 diluted in blocking buffer. • Secondary antibody: HRP (horse radish peroxidase)-conjugated Goat anti-Rabbit secondary, stock solution: Jackson ImmunoResearch (Goat anti-Rabbit HRP, #111-035-144) 1:1 diluted in glycerol, store at −20° C. The working solution: 1×2000 dilution of stock in blocking buffer. • Chemiluminescent working solution (Pierce, 37030): SuperSignal ELISA (enzyme linked immunosorbant assay) Pico Chemiluminescent substrate. • Crystal Violet solution: Stock: 2.5% Crystal violet in methanol, filtered and kept at ambient temperature. The working solution: dilute the stock 1:20 with PBS immediately before use. • 10% SDS: working solution: 5% SDS (sodium dodecylsulfate), diluted in PBS Methods: Day 1:
A 96 well TC (tissue culture treated) plate was coated with 10 μg/mL poly-L-Lysine at 37° C. for 30 min, washed twice with PBS, and air-dried for 5 minutes before cells were added. Hela cells were seeded at 10,000 cells/well and the cells were starved in 100 μL starvation medium containing Axl/Fc for 24 hrs.
The cells were pre-treated with test compounds by adding 100 μL of 2× test compound to the starvation medium on the cells. The cells were incubated at 37° C. for 1 hr before stimulation.
The resulting mix was warmed to 37° C. 50 μL of 5×Axl 1st/2nd of antibody cluster was added to the cells and the cells were incubated at 37° C. for 5 min.
After 5 minutes stimulation, the plate was flicked to remove medium and the plate was tapped onto paper towels. Formaldehyde (4.0% in PBS, 100 μL) was added to fix the cells and the cells were incubated at ambient temperature for 20 min without shaking.
The cells were washed with a plate washer buffer to remove the formaldehyde solution. The plate was flicked to removed excess wash buffer and tapped onto paper towels. Quenching buffer (100 μL) was added to each well and the cells were incubated at ambient temperature for 20 minutes without shaking.
The cells were washed with a plate washer buffer to remove the quenching buffer. Blocking buffer (100 μL) was added and the cells were incubated at ambient temperature for at least an hour with gentle shaking.
The cells were washed with a plate washer buffer and diluted primary antibody (50 μL) was added to each well (blocking buffer was added to the negative control wells instead). The plates were incubated overnight at 4° C. with gentle shaking.
The wash buffer was removed, diluted secondary antibody (100 μL) was added, and the cells were incubated at ambient temperature for 1 hour with gentle shaking. During the incubation, the chemiluminescent reagent was brought to ambient temperature.
The secondary antibody was removed by washing the cells 1× with wash buffer, 1× with PBS by plate washer.

With Nc1nc(Nc2ccc(C(=O)N3CCC(N4CCCC4)CC3)cc2)nn1-c1cc2c(nn1)-c1ccccc1CCC2 [Compound 22, 1-(6,7-dihydro-5H-benzo[6,7]cyclohepta[1,2-c]pyridazin-3-yl)-N^3-(4-((4-(pyrrolidin-1-yl)piperidin-1-yl)carbonyl)phenyl)-1H-1,2,4-triazole-3,5-diamine] as the compound, how does the pIC50 read?
The pIC50 was > 6.00.

With Nc1nc(Nc2ccc3c(c2)CCC(NC2CC4CCC2C4)CC3)nn1-c1cc2c(nn1)-c1ccccc1CCC2 (centres unmarked) [Compound 23, 1-(6,7-dihydro-5H-benzo[6,7]cyclohepta[1,2-c]pyridazin-3-yl)-N^3-(7-((bicyclo[2.2.1]heptan-2-yl)amino)-6,7,8,9-tetrahydro-5H-benzo[7]annulene-2-yl)-1H-1,2,4-triazole-3,5-diamine] as the compound, how does the pIC50 read?
The pIC50 was > 6.00.

CN(C1CCc2ccc(Nc3nc(N)n(-c4cc5c(nn4)-c4ccccc4CCC5)n3)cc2CC1)C1CC2CCC1C2 (centres unmarked) [Compound 24, 1-(6,7-dihydro-5H-benzo[6,7]cyclohepta[1,2-c]pyridazin-3-yl)-N^3-(7-((bicyclo[2.2.1]heptan-2-yl)(methyl)amino)-6,7,8,9-tetrahydro-5H-benzo[7]annulene-2-yl)-1H-1,2,4-triazole-3,5-diamine] was tested. Which pIC50 did it give?
Its pIC50 is 5.00 to 6.00.

Nc1nc(Nc2ccc(N3CCCN(C4CCCC4)CC3)nc2)nn1-c1cc2c(nn1)-c1ccccc1CCC2 [Compound 25, 1-(6,7-dihydro-5H-benzo[6,7]cyclohepta[1,2-c]pyridazin-3-yl)-N^3-(6-(4-cyclopentyl-1,4-diazepan-1-yl)pyridin-3-yl)-1H-1,2,4-triazole-3,5-diamine] was tested. Which pIC50 did it give?
The pIC50 was > 6.00.

How did the pIC50 turn out when Nc1nc(Nc2cnc3c(c2)CCN(C2CCCC2)CC3)nn1-c1cc2c(nn1)-c1ccccc1CCC2 [Compound 26, 1-(6,7-dihydro-5H-benzo[6,7]cyclohepta[1,2-c]pyridazin-3-yl)-N^3-(7-cyclopentyl-6,7,8,9-tetrahydro-5H-pyrido[3,2-d]azepin-3-yl)-1H-1,2,4-triazole-3,5-diamine] was run?
The pIC50 was 5.00 to 6.00.

CN1CCN(c2ccc(Nc3nc(N)n(-c4cc5c(nn4)-c4ccccc4CCC5)n3)cn2)CC1 [Compound 27, 1-(6,7-dihydro-5H-benzo[6,7]cyclohepta[1,2-c]pyridazin-3-yl)-N^3-(6-(4-methylpiperazin-1-yl)pyridin-3-yl)-1H-1,2,4-triazole-3,5-diamine] was tested. Which pIC50 did it give?
The pIC50 was > 6.00.

CN1CCc2ncc(Nc3nc(N)n(-c4cc5c(nn4)-c4ccccc4CCC5)n3)cc2C1 [Compound 28, 1-(6,7-dihydro-5H-benzo[6,7]cyclohepta[1,2-c]pyridazin-3-yl)-N^3-(6-methyl-5,6,7,8-tetrahydro-1,6-naphthyridin-3-yl)-1H-1,2,4-triazole-3,5-diamine] was tested. Which pIC50 did it give?
The pIC50 was > 6.00.

Nc1nc(Nc2ccc(N3CCC(N4CCCC4)CC3)nc2)nn1-c1cc2c(nn1)-c1ccccc1CCC2 [Compound 29, 1-(6,7-dihydro-5H-benzo[6,7]cyclohepta[1,2-c]pyridazin-3-yl)-N^3-(6-(4-(pyrrolidin-1-yl)piperidin-1-yl)pyridine-3-yl)-1H-1,2,4-triazole-3,5-diamine] was tested. Which pIC50 did it give?
The pIC50 was 5.00 to 6.00.

How did the pIC50 turn out when CN1CCN(C2CCN(c3ccc(Nc4nc(N)n(-c5cc6c(nn5)-c5ccccc5CCC6)n4)cn3)CC2)CC1 [Compound 30, 1-(6,7-dihydro-5H-benzo[6,7]cyclohepta[1,2-c]pyridazin-3-yl)-N^3-(6-(4-(4-methylpiperazin-1-yl)piperidin-1-yl)pyridine-3-yl)-1H-1,2,4-triazole-3,5-diamine] was run?
The pIC50 was > 6.00.

CN1CCN(C(=O)C2CCc3ncc(Nc4nc(N)n(-c5cc6c(nn5)-c5ccccc5CCC6)n4)cc3C2)CC1 (centres unmarked) [Compound 31, 1-(6,7-dihydro-5H-benzo[6,7]cyclohepta[1,2-c]pyridazin-3-yl)-N^3-(6-(4-methylpiperazin-1-yl)carbonyl-5,6,7,8-tetrahydroquinolin-3-yl)-1H-1,2,4-triazole-3,5-diamine] was tested. Which pIC50 did it give?
Its pIC50 is > 6.00.

With CCN(CC)C1CCN(c2ccc(Nc3nc(N)n(-c4cc5c(nn4)-c4ccccc4CCC5)n3)cc2F)C1 (centres unmarked) [Compound 32, 1-(6,7-dihydro-5H-benzo[6,7]cyclohepta[1,2-c]pyridazin-3-yl)-N^3-(3-fluoro-4-(3-(diethylamino)pyrrolidin-1-yl)phenyl)-1H-1,2,4-triazole-3,5-diamine] as the compound, how does the pIC50 read?
The pIC50 was > 6.00.

With Nc1nc(Nc2ccc(N3CCN(C4CC5CCC4C5)CC3)cc2)nn1-c1cc2c(nn1)-c1ccccc1CCC2 (centres unmarked) [Compound 33, 1-(6,7-dihydro-5H-benzo[6,7]cyclohepta[1,2-c]pyridazin-3-yl)-N^3-(4-(4-(bicyclo[2.2.1]heptan-2-yl)piperazin-1-yl)phenyl)-1H-1,2,4-triazole-3,5-diamine] as the compound, how does the pIC50 read?
The pIC50 was 5.00 to 6.00.

How did the pIC50 turn out when CN1CCN(c2ccc(Nc3nc(N)n(-c4cc5c(nn4)-c4ccccc4CCC5)n3)cc2)CC1 [Compound 34, 1-(6,7-dihydro-5H-benzo[6,7]cyclohepta[1,2-c]pyridazin-3-yl)-N^3-(4-(4-methylpiperazin-1-yl)phenyl)-1H-1,2,4-triazole-3,5-diamine] was run?
The pIC50 was > 6.00.

How did the pIC50 turn out when CN1CCN(Cc2ccc(Nc3nc(N)n(-c4cc5c(nn4)-c4ccccc4CCC5)n3)cc2)CC1 [Compound 35, 1-(6,7-dihydro-5H-benzo[6,7]cyclohepta[1,2-c]pyridazin-3-yl)-N^3-(4-((4-methylpiperazin-1-yl)methyl)phenyl)-1H-1,2,4-triazole-3,5-diamine] was run?
Its pIC50 is > 6.00.

CCN(CC)C1CCN(c2ccc(Nc3nc(N)n(-c4cc5c(nn4)-c4ccccc4CCC5)n3)cc2F)CC1 [Compound 36, 1-(6,7-dihydro-5H-benzo[6,7]cyclohepta[1,2-c]pyridazin-3-yl)-N^3-(3-fluoro-4-(4-(diethylamino)piperidin-1-yl)phenyl)-1H-1,2,4-triazole-3,5-diamine] was tested. Which pIC50 did it give?
The pIC50 was > 6.00.

With Nc1nc(Nc2ccc(OCCN3CCCC3)cc2)nn1-c1ncnc2c1CCCc1ccccc1-2 [Compound 37, 1-(6,7-dihydro-5H-benzo[6,7]cyclohepta[1,2-d]pyrimidin-4-yl)-N^3-(4-(2-(pyrrolidin-1-yl)ethoxy)phenyl)-1H-1,2,4-triazole-3,5-diamine] as the compound, how does the pIC50 read?
The pIC50 was > 6.00.

How did the pIC50 turn out when Nc1nc(Nc2ccc(N3CCN(C4CC5CCC4C5)CC3)cc2)nn1-c1ncnc2c1CCCc1ccccc1-2 (centres unmarked) [Compound 38, 1-(6,7-dihydro-5H-benzo[6,7]cyclohepta[1,2-d]pyrimidin-4-yl)-N3-(4-(4-(bicyclo[2.2.1]heptan-2-yl)piperazin-1-yl)phenyl)-1H-1,2,4-triazole-3,5-diamine] was run?
The pIC50 was > 6.00.

— patent US7709482B2, “Polycyclic heteroaryl substituted triazoles useful as Axl inhibitors” (Rigel Pharmaceuticals, Inc., priority 2006, dated 2010)
